What was measured:
HMO6 cells = assay: Uptake of FITC-labeled Aβ42 in HMO6 cells (live-cell imaging); format: cell-based, human; details: HMO6 cells pre-treated with Rg3 5 μg/ml for 20 h, after 30 min, persisted for 6 h (FIG. 21)
Protocol: The stably transfected HM06.hSRA cells prepared in Example 5-5 were plated into 96-well plates at 5000 cells/well to analyze Aβ uptake. […] […] Fluorescence intensities represented the number of cells (count/mm^2) over the time to quantify cells with FITC-labeled Aβ42 peptides. Aβ42 uptake was calculated using the following equation (FIG. 21):

clathrin = assay: Clathrin immunocytochemistry in HMO6 cells; format: cell-based, human; details: Rg3 5 μg/ml, 24 h, immunocytochemistry (FIG. 20)
Protocol: FIG. 20 is a fluorescence microscopic image showing a result of immunocytochemical analysis investigating the expression of caveolin and clathrin in HMO6 cells treated with or without Rg3. HMO6 cells were treated with Rg3 (5 μg/ml) for 24 h after plated on chamber slides and then the cells were stained with primary antibodies binding specifically to caveolin and clathrin, respectively and counterstained with DAPI. The length of scale bar represents 10 μm.
The present inventors investigated whether ginsenosides can induce the expression of SRA, clathrin, caveolin 1, NEP or IDE and the differentiation of neurons actually through immunocytochemical analysis (ICC) and microscopic observations. Specifically, Cultured HMO6 cells were fixed in 4% paraformaldehyde (in 1×PBS) for 15 min, washed twice with 1×PBS supplemented with 100 mM glycine for 5 min, and incubated with permeabilization buffer consisting of 0.1% Triton X-100 (Sigma-Aldrich, USA) in 1×PBS for 30 min at room temperature. Blocking was performed with 1% bovine serum albumin (BSA, Sigma-Aldrich, USA) for 30 min at room temperature. Then, SRA, clathrin, caveolin1, NEP, or IDE mouse monoclonal antibody (1:200; Santa Cruz Biotechnology, USA) was added to 1% BSA in PBS with Tween 20 (PBST) and incubated for 2 h at room temperature. […]

NEP = NEP protein expression in HMO6 cells (western blot, immunocytochemistry); format: cell-based, human; details: 5 μg/ml Rg3, 24 h (FIG. 19)
Protocol: (§1) FIG. 19 represents an images showing a result of western blot analysis of the expression of NEP (neprilysin) and IDE (insulin-degrading enzyme) in HMO6 cells (A); graphs representing the above result quantitatively (B and C), and fluorescence microscopic images representing immunocytochemical analyses (D and E). The expression of NEP and IDE in HMO6 cells was analyzed by western blot analysis and immunocytochemistry after treating Aβ42 (5 μM) or Rg3 (2.5 or 5 μg/ml) for 24 h to HMO6 cells in serum-free DMEM medium plated on 60 mm cell culture plates or chamber slides. The results are shown as mean±SD. * P<0.05, ** P<0.01, *** P<0.001.
(§2) HMO6 cells were lysed in 1% RIPA buffer containing protease and phosphatase inhibitors (Roche, Mannheim, Germany) and whole-cell lysates were separated on 10% sodium dodecyl sulfate-polyacrylamide gel electrophoresis. After electrophoresis, the proteins were transferred to polyvinylidene fluoride membranes, and the membranes were blocked with 5% skim milk in Tris-buffered saline solution containing 0.1% Tween-20. The membranes were then immunoblotted with primary antibodies, anti-phospho-p38, anti-p38, anti-phospho-ERK, anti-ERK, and anti-f3-actin (Santa Cruz Biotechnology, USA), followed by incubation with horseradish peroxidase-conjugated anti-rabbit or anti-mouse secondary antibodies (Stressgen, USA). […]

IDE = IDE protein expression in HMO6 cells (western blot, immunocytochemistry); format: cell-based, human; details: 5 μg/ml Rg3, 24 h (FIG. 19)
Protocol: as §1, §2

SRA = assay: In vivo SRA protein expression in brain tissues (western blot); details: mice administrated with Rg3 (FIG. 24B)
Source text: HMO6 cells were lysed in 1% RIPA buffer containing protease and phosphatase inhibitors (Roche, Mannheim, Germany) and whole-cell lysates were separated on 10% sodium dodecyl sulfate-polyacrylamide gel electrophoresis. After electrophoresis, the proteins were transferred to polyvinylidene fluoride membranes, and the membranes were blocked with 5% skim milk in Tris-buffered saline solution containing 0.1% Tween-20. The membranes were then immunoblotted with primary antibodies, anti-phospho-p38, anti-p38, anti-phospho-ERK, anti-ERK, and anti-f3-actin (Santa Cruz Biotechnology, USA), followed by incubation with horseradish peroxidase-conjugated anti-rabbit or anti-mouse secondary antibodies (Stressgen, USA). Blots were developed using an enhanced chemiluminescent solution (Thermo, USA).
The present inventor investigated whether ginsenoside Rg3 translocated to brain tissues contributes to the uptake and degradation of Aβ42 in order to determine whether in vitro experimental results described in the Example 5 can be applied to in vivo condition in the same manner. Specifically, the expression level of SRA and SRB gene within brain tissues of mice administrated with Rg3 was determined using the RT-PCR analysis described in the Example 5-4 (FIG. 24A) and the western blot analysis described in the Example 5-6 (FIG. 24B). […]

CC(C)=CCC[C@](C)(O)[C@H]1CC[C@]2(C)[C@@H]1[C@H](O)C[C@@H]1[C@@]3(C)CC[C@H](O[C@@H]4O[C@H](CO)[C@@H](O)[C@H](O)[C@H]4O[C@@H]4O[C@H](CO)[C@@H](O)[C@H](O)[C@H]4O)C(C)(C)[C@@H]3CC[C@]12C [ginsenoside Rg3]
Aβ42 uptake (HMO6 cells): increased Aβ42 uptake significantly
clathrin expression (clathrin): highly expressed
NEP expression in cells (NEP): distinctively expressed
IDE expression in cells (IDE): distinctively expressed
expression of SRA protein in brain tissues (SRA): increased

Source: patent publication US20160022751A1, “NOVEL COMPOSITION FOR TREATING ALZHEIMER'S DISEASE AND IMPROVING COGNITIVE FUNCTION OF ALZHEIMER'S PATIENTS” (GANGNEUNG-WONJU NATIONAL UNIVERSITY INDUSTRY ACADEMY …, priority 2014, published 2016)
